Assay results as given in US20130164792A1, “METHOD FOR PRODUCING CRYSTALS OF MUTIVALENT METAL SALT OF (2R, 4R) MONATIN” (Ajinomoto Co., Inc., priority 2011, published 2013).

B1: Rac39: racemase (SEQ ID NO:2) with C-terminal His tag, expressed in E. coli, converts (2S,4R)Monatin into (2R,4R)Monatin (protein)
chain: MAETNLHKKINIEMHFDNLVSNFEKIRKLNNENVDVADKVIPVVKANAYNFGVYDITKTFLSMKEPQTKFFVFSLEEGIELRKFFPSIERIFVIMGALENDAELFKKYNLTPVVNSFYQLEVCKKHNIKNIVLQFNTGMNRNGFEVKELRKVKQICDSEKFNVLMVMSHFACSDNMASEVNAYQINEYKKVARVFNDKKIIKSFPATFGILNFNTINGLVNSFRPGRLYYGFLPKEGYDKNLFSVYVYLSKDKEGNIILPFGKEDGIDYGEQAYILVDKNKAYVKQVDSHKVILDTNDKTLVGKKVYLIKNGMGYDEFKEQSKQDLLTFFGKIFKNCDKNKNLCNINATRKRAKKDNKFVPKAIFKKDAKGQYTQYTTTLFEKREVSADGIVGYDATRAVKKGDKLGVIFNGHMDGFYQPMSNKHVFVYVKNKYKQLIPCEFYGLISSDQAVIKIPNDEFDNIEYGAKVVVFDKNHPITLFEQATGVSRDELFYGLDKTYRIAEQK
modifications: C-terminal His tag; Obtained from environmental sample

Experiments:
[1] = Patent Literature 1; cited from earlier work
[2] = Measurement of solubility of Monatin metal salt in water; type: physicochemical; conditions: 1 g salt added to 1 g water, stirred at 25° C., filtrate analyzed by HPLC
Protocol: Solubility of a (2S,4R)Monatin potassium salt and a (2R,4R)Monatin potassium salt in water (H2O) was measured. 1 g of the (2S,4R)Monatin potassium salt or 1 g of the (2R,4R)Monatin potassium salt was added to 1 g of the water, the mixture was stirred at 25° C., a slurry was filtrated out, and the resulting filtrate was analyzed by HPLC. […] The solubility of the (2R,4R)Monatin potassium salt was higher than the solubility of the (2S,4R)Monatin potassium salt.
Then, Solubility of a (2S,4R)Monatin magnesium salt and a (2R,4R)Monatin magnesium salt in the water was measured. The solubility was measured in the same manner as above. For the (2S,4R)Monatin magnesium salt, firstly, the same amount of magnesium chloride was added to the (2S, 4R)Monatin potassium salt, and then ethanol was further added thereto. Then, the resulting slurry was filtrated and the wet crystal was dried under reduced pressure to prepare the (2S,4R)Monatin magnesium salt. For the (2R, 4R)Monatin magnesium salt, firstly, the same amount of magnesium chloride was added to the (2R,4R)Monatin potassium salt, and then methanol was further added thereto. Then, the resulting slurry was filtrated and the wet crystal was dried under reduced pressure to prepare the (2R, 4R)Monatin magnesium salt.

[3] = Isomerization reaction using (2S,4R)Monatin or (2R,4R)Monatin as substrate with purified racemase; type: biochemical; conditions: 50 μM PLP, 100 mM Tris-HCl (pH 8.0), 0.72 mg/mL enzyme, 25° C., 15 minutes, 1 U = 1 μmol Monatin isomerized per minute
Protocol: A reaction was carried out for 15 minutes using the purified racemase under the following condition. The reaction was carried out in 0.1 mL using an Eppendorf tube. After the reaction was terminated, an equal amount of a reaction stopping solution, 200 mM sodium citrate solution (pH 4.5) was added to the sample. HPLC was used for the analysis.
Reaction condition: 20 mM (2S,4R)Monatin or (2R,4R)Monatin, 50 μM PLP, 100 mM Tris-HCl (pH 8.0), 0.72 mg/mL racemase purified enzyme, 25° C., 120 rpm.
The (2S,4R)Monatin and the (2R,4R)Monatin were quantified by HPLC analysis. An analysis condition is as shown below.
Mobile phase: 20 mM KH2PO4/acetonitrile=100/5 Flow rate: 1.0 mL/minute Column temperature: 40° C.

Molecule | solubility in water [2] | other results
N[C@@H](C[C@@](O)(Cc1c[nH]c2ccccc12)C(=O)O)C(=O)O (single isomer, unassigned) [(2S,4S) isomer of 4-hydroxy-4-(3-indolylmethyl)-2-aminoglutaric acid] | – | sweetness compared with sucrose [1]: several hundreds times sweeter than sucrose
N[C@H](C[C@](O)(Cc1c[nH]c2ccccc12)C(=O)O)C(=O)[O-].N[C@H](C[C@](O)(Cc1c[nH]c2ccccc12)C(=O)O)C(=O)[O-].[Mg+2] [(2R,4R)Monatin magnesium salt] | 1.6 % by weight | –
N[C@H](C[C@](O)(Cc1c[nH]c2ccccc12)C(=O)O)C(=O)[O-].[K+] [(2R,4R)Monatin potassium salt] | 37.8 % by weight | –
N[C@@H](C[C@](O)(Cc1c[nH]c2ccccc12)C(=O)O)C(=O)[O-].N[C@@H](C[C@](O)(Cc1c[nH]c2ccccc12)C(=O)O)C(=O)[O-].[Mg+2] [(2S,4R)Monatin magnesium salt] | 14.5 % by weight | –
N[C@@H](C[C@](O)(Cc1c[nH]c2ccccc12)C(=O)O)C(=O)[O-].[K+] [(2S,4R)Monatin potassium salt] | 20.1 % by weight | –
B1 | – | activity to form the (2S,4R)Monatin from the (2R,4R)Monatin ([3]; 20 mM (2R,4R)Monatin): 0.09 U/mg; activity to form the (2R,4R)Monatin from the (2S,4R)Monatin ([3]; 20 mM (2S,4R)Monatin): 0.14 U/mg
